Experimental data published in US20250250559A1, “METHOD TO ANALYZE AND OPTIMIZE GENE EDITING MODULES AND DELIVERY APPROACHES” (Hoffmann-La Roche Inc., priority 2016, published 2025).
Several values for one entry are separate records, joined by “and”; a condition that tells them apart may be missing. Identical values can stand only once.

Columns and labels:
Format in all cases: cell-based, human
[1] = system: DPH1 gene; test: DT resistant colony count after DPH1 gene editing (homozygous gene inactivation); conditions: for # of DT resistant colonies (20,000 seeded cells) / # of DT resistant colonies (20,000 seeded cells) (unheaded second sub-column: mean): DPH1 (gRNA length), TF eff. = 31%; for # of DT resistant colonies (20,000 seeded cells): MCF7, individual samples A-D
Description: (§1) MCF7 cells (Brooks, et al. 1973) were originally obtained from ATCC (subsequently propagated in an in-house cell bank) and maintained in RPMI […] medium supplemented with 10% FCS, 2 mM L-Glutamine and penicillin/streptomycin at 37° C. and 85% humidity. For transfection of plasmids harboring gene-editing modules, 3,000,000 cells were seeded in a 10 cm diameter culture dish and cultivated at 37° C. and humidified 5% CO2. 24 h after seeding, cells were transfected with 20 μg total DNA using JetPEI (Polyplus) according to the manufacturer's protocol but with an N/P ratio of 6:1. Transfection efficiency was determined after 24 h by flow cytometry (FACS Calibur, BD biosciences) of cells that were transfected with a modified eGFP expression plasmid (Zhang, et al. 1996).
(§2) Plasmids encoding CRISPR/Cas9 gene-editing entities (i.e. knock-out and integration systems) against Dph1 (gRNA target sequence: […] (SEQ ID NO: 01) derived from RefSeq: NM_001383) and Dph2 (gRNA target sequence: […] (SEQ ID NO: 02) derived from RefSeq: NM_001039589, NM_001384), and scrambled control (gRNA sequence: […] (SEQ ID NO: 03)) were obtained from OriGene. This system comprises one plasmid expressing a ˜100 nt gRNA under control of a U6 promoter as well as Cas9 nuclease under control of a CMV promoter and a Donor plasmid with a promoter-less GFP/PM expression cassette flanked by homologous arms to the target gene (Dph1 or Dph2). Additional Dph1 gRNA sequence variants of different sizes (OriGene) […]
(§3) MCF7 cells which have all chromosomal copies of DPH1 or DPH2 inactivated are resistant to diphtheria toxin (Stahl, et al. 2015). Thus, occurrence and frequency of toxin resistant cells/colonies upon CRISPR/Cas inflicted gene inactivation provides a measure for efficiency of inactivation of all gene copies. Therefore, MCF/cells were transfected as described in Example 1 with (i) a GFP expression plasmid as transfection control, (ii) the CRISPR/Cas9 Dph1 or Dph2 knock-out/integration system and (iii) knock-out/integration entities containing a scrambled gRNA to determine Cas9 independent integration frequencies. After determination of transfection efficiency, cells were seeded in 6-well plates. For quantification of homozygous knock-out events by DT 20000 cells were seeded and for quantification of integration events by PM or both events 40000 cells were seeded. RPMI medium was exchanged by RPMI medium containing DT or PM or both toxins 3 days after cell seeding. Exchange of medium was repeated every 2-3 days until all dead cells were removed from the plates and actively growing colonies could be detected via microscopic inspection. Thereafter (between day 12 and day 14 after start of toxin exposure), cells were washed 3 times with PBS and subsequently stained with ice cold methylene blue (0.2% in 50% EtOH). Methylene blue solution was subsequently removed and the plates were carefully washed under running water. Finally, cell colonies were counted under the microscope with a 5 mm grid foil.
MCF7 cells which have all chromosomal copies of DPH1 inactivated are DT resistant. Thus, occurrence and frequency of DTr colonies upon ZFN inflicted gene inactivation and/or cassette integration provides a measure for efficacy of inactivation of all gene copies. The ZFN recognition sequence ([…], cleavage site, SEQ ID NO: 10) are derived from NM_001383.3 (DPH1-wt) and were obtained from Sigma Aldrich. A PAC integration cassette for this position was obtained from OriGene. MCF7 cells were transfected as described above with (i) a GFP expression plasmid, (ii) the plasmid encoding DPH1-targeting ZFN and (iii) the DPH1-targeting PAC-integration cassette. After determination of transfection efficiency, cells were seeded in 6-well plates. For quantification of homozygous knock-out events (DTr) 20,000 cells were seeded, 40,000 cells for quantification of integration events (PMr) or double resistances. […]

[2] = system: DPH1 gene; test: PM resistant colony count after DPH1 gene editing (PAC cassette integration); conditions: for # of PM resistant colonies (40,000 seeded cells) / # of PM resistant colonies (40,000 seeded cells) (unheaded second sub-column: mean): DPH1 (gRNA length), TF eff. = 31%; for # of PM resistant colonies (40,000 seeded cells): MCF7, individual samples A-D; for integration efficacy in dependence on gRNA length: PMr colonies
Description: as §1, §2
as §3, with “For quantification of homozygous knock-out events by DT 20000 cells were seeded and for quantification of integration events by PM or both events 40000 cells were seeded.” left out
CRISPR/Cas module for targeted integration contains a puromycin (PM) resistance gene expression cassette without promoter to avoid transient expression. Thus, detection of integration of recombinant sequences into the genome was detected by determining sensitivity of cells towards PM. A concentration of […] PM (which quantitatively eliminates wildtype MCF7 cells) was applied to select MCF7 cells with stably integrated expression cassettes. PM-resistant colonies selected with the same procedure as described above for the DT selection and visualized and quantified (between 12 and 14 days after start of selection) in the same manner as described above for toxin resistant colonies. Number of PM resistant colonies obtained with non-target guide sequences (scrambled gRNA, FIG. 1) reflect the nonspecific integration background. Increase in colonies (above nonspecific background) obtained with target-gene gRNAs which are PM-resistant but toxin sensitive reflect integration into just one target allele, leaving the other dph1 or dph2 allele unaffected. […]

[3] = system: DPH1 gene; test: DT + PM double resistant colony count after DPH1 gene editing (integration with inactivation); conditions: DPH1 (gRNA length), TF eff. = 31%; for # of DT + PM resistant colonies (40,000 seeded cells): MCF7, individual samples A-D
Description: MCF7 cells (Brooks, et al. 1973) were originally obtained from ATCC (subsequently propagated in an in-house cell bank) and maintained in RPMI 1641 medium supplemented with 10% FCS, 2 mM L-Glutamine and penicillin/streptomycin at 37° C. and 85% humidity. For transfection of plasmids harboring gene-editing modules, 3,000,000 cells were seeded in a 10 cm diameter culture dish and cultivated at 37° C. and humidified 5% CO2. 24 h after seeding, cells were transfected with 20 μg total DNA using JetPEI (Polyplus) according to the manufacturer's protocol but with an N/P ratio of 6:1. Transfection efficiency was determined after 24 h by flow cytometry (FACS Calibur, BD biosciences) of cells that were transfected with a modified eGFP expression plasmid (Zhang, et al. 1996).
CRISPR/Cas module for targeted integration contains a puromycin (PM) resistance gene expression cassette without promoter to avoid transient expression. Thus, detection of integration of recombinant sequences into the genome was detected by determining sensitivity of cells towards PM. A concentration of 500 ng/μL PM (which quantitatively eliminates wildtype MCF7 cells) was applied to select MCF7 cells with stably integrated expression cassettes. PM-resistant colonies selected with the same procedure as described above for the DT selection and visualized and quantified (between 12 and 14 days after start of selection) in the same manner as described above for toxin resistant colonies. Number of PM resistant colonies obtained with non-target guide sequences (scrambled gRNA, FIG. 1) reflect the nonspecific integration background. Increase in colonies (above nonspecific background) obtained with target-gene gRNAs which are PM-resistant but toxin sensitive reflect integration into just one target allele, leaving the other dph1 or dph2 allele unaffected. PM resistant colonies that are also DT resistant have the expression cassette integrated into at least target allele and the other allele either inactivated or inactivated accompanied by yet another integration event.

[4] = listed as 16 mer Dph1 CRISPR Cas9 gRNA
[5] = listed as 18 mer Dph1 CRISPR Cas9 gRNA
[6] = listed as 22 mer Dph1 CRISPR Cas9 gRNA
[7] = listed as 24 mer Dph1 CRISPR Cas9 gRNA
[8] = listed as 26 mer Dph1 CRISPR Cas9 gRNA
[9] = listed as 26 mer Dph1 CRISPR/Cas9 gRNA

Substance	# of DT resistant colonies (20,000 seeded cells) [1]	# of DT resistant colonies (20,000 seeded cells) (unheaded second sub-column: mean) [1]	# of PM resistant colonies (40,000 seeded cells) [2]	# of PM resistant colonies (40,000 seeded cells) (unheaded second sub-column: mean) [2]	integration efficacy in dependence on gRNA length [2]	# of DT + PM resistant colonies (40,000 seeded cells) [3]	# of DT + PM resistant colonies (40,000 seeded cells) (unheaded second sub-column: mean) [3]	other results
14 mer SpCa9 Dph1 gRNA: Dph1 gRNA sequence variant GGCCGAGACGGCCC with SpCas9 (listed as DNA, chemistry not given here)	0	0	6 and 10 and 8 and 9	8	not exceeding scrambled control background levels	0	0	DPH1 inactivation efficacy in dependence on gRNA length ([1]; DTr colonies): below detection levels; # of PM resistant colonies (40,000 seeded cells) ([2]; listed as 14 mer Dph1 CRISPR Cas9 gRNA): 6 and 10 and 8 and 9
16 mer SpCas9 Dph1 gRNA: Dph1 gRNA sequence variant GCGGCCGAGACGGCCC with SpCas9 (chemistry not given here)	275 and 298 and 292 and 271	284	21 and 26 (2×) and 25	25	Targeted integration clearly above background was observed	7 and 9 (2×) and 10	8	# of DT resistant colonies (20,000 seeded cells) [1, 4]: 275 and 298 and 292 and 271; # of PM resistant colonies (40,000 seeded cells) [2, 4]: 21 and 26 (2×) and 25; # of DT + PM resistant colonies (40,000 seeded cells) [3, 4]: 7 and 9 (2×) and 10
18 mer SpCas9 Dph1 gRNA: Dph1 gRNA sequence variant GGGCGGCCGAGACGGCCC with SpCas9 (chemistry not given here)	284 and 299 and 321 and 324	307	19 and 25 and 27 and 22	23	Targeted integration clearly above background was observed	10 and 12 and 7 and 11	10	# of DT resistant colonies (20,000 seeded cells) [1, 5]: 284 and 299 and 321 and 324; # of PM resistant colonies (40,000 seeded cells) [2, 5]: 19 and 25 and 27 and 22; # of DT + PM resistant colonies (40,000 seeded cells) [3, 5]: 10 and 12 and 7 and 11
22 mer SpCas9 Dph1 gRNA: Dph1 gRNA sequence variant AGCAGGGCGGCCGAGACGGCCC with SpCas9 (chemistry not given here)	278 and 292 and 297 and 267	284	14 and 12 and 11 and 15	13	Targeted integration clearly above background was observed	6 and 5 (2×) and 4	5	# of DT resistant colonies (20,000 seeded cells) [1, 6]: 278 and 292 and 297 and 267; # of PM resistant colonies (40,000 seeded cells) [2, 6]: 14 and 12 and 11 and 15; # of DT + PM resistant colonies (40,000 seeded cells) [3, 6]: 6 and 5 (2×) and 4
24 mer SpCas9 Dph1 gRNA: Dph1 gRNA sequence variant GGAGCAGGGCGGCCGAGACGGCCC with SpCas9 (chemistry not given here)	237 and 252 and 228 and 211	232	13 and 12 and 11 and 15	13	Targeted integration clearly above background was observed	2 and 4 and 3 (2×)	3	# of DT resistant colonies (20,000 seeded cells) [1, 7]: 237 and 252 and 228 and 211; # of PM resistant colonies (40,000 seeded cells) [2, 7]: 13 and 12 and 11 and 15; # of DT + PM resistant colonies (40,000 seeded cells) [3, 7]: 2 and 4 and 3 (2×)
26 mer SpCas9 Dph1 gRNA: Dph1 gRNA sequence variant GCGGAGCAGGGCGGCCGAGACGGCCC with SpCas9 (chemistry not given here)	161 and 155 and 176 and 187	170	12 (2×) and 11 and 9	11	Targeted integration clearly above background was observed	0 (2×) and 1 (2×)	1	# of DT resistant colonies (20,000 seeded cells) [1, 8]: 161 and 155 and 176; # of DT resistant colonies (20,000 seeded cells) [1, 9]: 187; # of PM resistant colonies (40,000 seeded cells) [2, 8]: 12 (2×) and 11; # of PM resistant colonies (40,000 seeded cells) [2, 9]: 9; # of DT + PM resistant colonies (40,000 seeded cells) [3, 8]: 0 (2×) and 1; # of DT + PM resistant colonies (40,000 seeded cells) [3, 9]: 1
